Values quoted from earlier work, collected in patent publication US20030203043A1 (priority 2002, published 2003).
Like-named read-outs stand apart in the source and are kept apart here.

What was measured:
[1] = supplementation
[2] = female rats
[3] = target: T1, aromatase (Homo sapiens, UniProt P11511); settings: relative to chrysin, AG, ANG
T1 sequence (P11511 1-503): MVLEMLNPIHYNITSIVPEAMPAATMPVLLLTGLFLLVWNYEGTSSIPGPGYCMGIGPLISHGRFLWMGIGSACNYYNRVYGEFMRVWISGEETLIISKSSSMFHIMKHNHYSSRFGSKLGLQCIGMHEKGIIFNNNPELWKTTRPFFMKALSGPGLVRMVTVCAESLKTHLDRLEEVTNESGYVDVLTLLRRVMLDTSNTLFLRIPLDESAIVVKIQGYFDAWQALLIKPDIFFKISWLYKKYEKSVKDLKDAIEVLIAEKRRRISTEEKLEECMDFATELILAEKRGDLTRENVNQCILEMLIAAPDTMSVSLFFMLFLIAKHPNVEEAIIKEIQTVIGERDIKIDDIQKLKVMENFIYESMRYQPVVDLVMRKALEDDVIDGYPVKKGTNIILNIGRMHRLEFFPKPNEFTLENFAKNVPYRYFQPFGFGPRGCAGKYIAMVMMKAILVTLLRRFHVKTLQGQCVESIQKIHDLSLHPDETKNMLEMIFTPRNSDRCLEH

[4] = not given; remark: listed apart in the source
[5] = hypogonadal men; for waking erection: Asian group; for sexual interest and activity, spontaneous erection: Caucasian group
[6] = prostate and seminal vesicle weights
[7] = levator ani muscles
[8] = 300 mg/wk, six weeks; TE shoulders; ND shoulders and chest
[9] = pharmacological doses
[10] = in vivo
[11] = in vivo; remark: listed apart in the source
[12] = compared with placebo

## C[C@]12CC[C@H]3[C@@H](CCC4=C[C@@H](O)CC[C@@]43C)[C@@H]1CC[C@@H]2O [4-androstenediol]
supplementation
  urine testosterone concentration relative to 4-androstenedione: 10 fold

## C[C@]12CCC(=O)C=C1CC[C@@H]1[C@@H]2CC[C@]2(C)C(=O)CC[C@@H]12 [4-androstenedione]
[1]
  serum testosterone: elevations in serum testosterone

## C[C@]12CC[C@H]3[C@@H](CC=C4C[C@@H](O)CC[C@@]43C)[C@@H]1CC[C@@H]2O [5-androstenediol]
[2]
  lipid deposition or heat production: did not have a significant effect
  proportion of protein in the body composition: increased the proportion of protein

## C[C@]12CC[C@H]3[C@@H](CCC4=CC(=O)CC[C@@H]43)[C@@H]1CCC2=O [19-nor-androstenedione]
In vivo
  excretion products: excreted mainly as nor-androsterone and nor-etiocholanolone

## COc1ccc(-c2coc3cc(O)cc(O)c3c2=O)cc1 [Biochanin A, 5,7-dihydroxy-4′-methoxyisoflavone]
[3]
  aromatase inhibition: inhibited aromatase, but to a lesser degree

## C[C@]12CC[C@H](O)CC1=CC[C@@H]1[C@@H]2CC[C@]2(C)C(=O)CC[C@@H]12 [DHEA, dehydro-epiandrosterone]
[4]; 50 mg dose
  plasma testosterone: levels similar to those observed in young women
[4]; 50 mg or 200 mg DHEA
  delta 5-androstenediol plasma level: small increase
  increase of plasma delta 4-androstenedione: significant and dose dependent
  plasma estrogens, particularly estradiol: significant and dose dependent increase
[4]; 200 mg dose
  plasma testosterone: slightly below the levels observed in normal men
[4]; both doses
  increase of plasma dihydrotestosterone levels: small

## C[C@@H]1CC2=CC(=O)CC[C@@H]2[C@H]2CC[C@]3(C)[C@@H](O)CC[C@H]3[C@@H]21 [MENT, 7α-methyl-19-nor-testosterone]
[5]
  waking erection: increased waking erection
  sexual interest and activity, spontaneous erection: significant increases
[6]
  androgenic potency relative to testosterone: four- to five-times
[7]
  anabolic potency relative to testosterone: ten-times

## CCCCCCC(=O)O[C@H]1CC[C@H]2[C@@H]3CCC4=CC(=O)CC[C@]4(C)[C@H]3CC[C@]12C [TE, testosterone enanthate]
[8]
  body circumferences: significant increases
[5]
  waking erection: increased waking erection
  sexual interest and activity, spontaneous erection: significant increases

## C[C@]12CC[C@H]3[C@@H](CCC4=CC(=O)CC[C@@]43C)[C@@H]1CC[C@@H]2O [Testosterone]
[2]
  lipid deposition or heat production: did not have a significant effect
  proportion of protein in the body composition: increased the proportion of protein

## CCCCCCCCCC(=O)O[C@H]1CC[C@H]2[C@@H]3CCC4=CC(=O)CC[C@@H]4[C@H]3CC[C@]12C [nandrolone decanoate]
[8]
  body circumferences: significant increases
[9]
  total weight, lean body mass, body cell mass, muscle size, and strength: significant gains

## C[C@]12CC[C@H]3[C@@H](CCC4=CC(=O)CC[C@@H]43)[C@@H]1CC[C@@H]2O [nandrolone, 19-nor-testosterone]
[10]
  decrease in HDL-cholesterol: 25-27%
[11]
  effect on sperm: azoospermia
[12]
  lean body mass: increased significantly
[2]
  energy expenditure: increased energy expenditure
